Where two headings read alike, the source gives them in different places. Values belong to the molecule of their own block, whether it stands above or below them. Where a SMILES comes first, the peptide text is derived from it. The star is where a group is joined. X3 = CC(=O)O[C@H]1C(=O)[C@@]2(C)[C@H]([C@H](OC(=O)c3ccccc3)[C@]3(O)C[C@H](OC(=O)[C@H](OC(=O)CCCCCN4C(=O)CC(*)C4=O)[C@@H](NC(=O)c4ccccc4)c4ccccc4)C(C)=C1C3(C)C)[C@]1(OC(C)=O)CO[C@@H]1C[C@@H]2O; X2 = O=C(CCCCCN1C(=O)CC(*)C1=O)OCCOC(=O)CCCc1ccc(N(CCCl)CCCl)cc1
Key:
[1] = test system: HCT116: human colon carcinoma; assay: cells; type: cell-based; settings: for IC50: HCT116 colon, read-out: IC50 values; for more efficient than Chl: HCT116 colon carcinoma
Experimental: HCT116: human colon carcinoma (origin: ATCC #CCL-247)
(§1) Viability assays were performed. Briefly, cells are seeded in 96-well plates and incubated with increasing concentrations of drugs (i) for 1 hour then cells are rinsed and incubated with fresh medium without drugs for 48 hours, or (ii) for 48 hours. A WST-1 test (from Roche) was performed and IC50 values (drug concentration that inhibits 50% of cell viability) were estimated from sigmoidal regressions.
(§2) DPV15-E-Chl conjugate was compared to non-conjugated Chl and 5FUra for the inhibition of in vitro cell proliferation of human carcinoma and leukemia cells. We calculated IC50 values=drug concentration that inhibits 50% of cell viability.

[2] = test system: HT29: human colon carcinoma; assay: cells; type: cell-based; settings: for IC50: HT29 colon, read-out: IC50 values
Experimental: HT29: human colon carcinoma, low P-gp expression (origin: ATCC #HTB-38)
as §1, §2

[3] = test system: OVCAR-3: human ovary carcinoma; assay: cells; type: cell-based; settings: OVCAR-3 ovary carcinoma; 1 h incubation + 72 h post-incubation
Experimental: OVCAR-3: human ovary carcinoma (origin: ATCC #HTB-161)
as §1, with “drugs” for “drugs (i)”, “72” for “48 hours, or (ii) for 48”
(§3) We tested the inhibition of in vitro cell proliferation of human carcinoma cells, and we calculated IC50 values=drug concentration that inhibits 50% of cell viability.

[4] = test system: MES-SA/Dx5: human uterine sarcoma, resistant to paclitaxel; settings: read-out: IC50 values, 1 h incubation + 72 h post-incubation
[5] = test system: NCI-H1299: human non small cell lung carcinoma; assay: cells; type: cell-based; settings: H1299 NSCLC; 1 h incubation + 72 h post-incubation
Experimental: NCI-H1299: human non small cell lung carcinoma (NSCLC) (origin: ATCC #CRL-5803)
as §1, with “drugs” for “drugs (i)”, “72” for “48 hours, or (ii) for 48”
as §3

[6] = Solubility in water / aqueous solutions
HeLa cells = assay: Poly-L-Lys inhibition of the internalization of DPV-PO conjugates; type: cell-based; settings: inhibition of DPV-PO internalization (25 μg/ml, 4 h) in HeLa cells
Experimental: In order to verify this hypothesis, we tested the inhibition of DPV-PO internalization in HeLa cells in the presence of Poly-L-Lysine in the incubation medium: positively charged poly-L-Lys should bind to the negative charges of the cell surface, and prevent the binding of DPVs.
HeLa cells cultivated on glass labtek slides for 24 hours were pre-incubated with the indicated concentrations of poly-L-Lys for 1 hour at 37° C. Cells were then incubated for 4 hours in the presence of DPV-PO conjugates at 25 μg/ml in cell culture medium containing the same quantity of poly-L-Lys. Internalized PO was quantified after extensive treatment with trypsin to eliminate surface bound material, and subsequent cell lysis. Results are given in picogram PO per 1000 cells.

[7] = Stability in H2O+0.1% TFA overnight at room temperature; type: physicochemical; settings: protected from light, Chl 0.1 mg/ml, DPV15-E-Chl 0.5 mg/ml in H2O+0.1% TFA
Experimental: After overnight incubation at room temperature and protected from light, both Chl (0.1 mg/ml in H2O+0.1% TFA) and DPV15-E-Chl (0.5 mg/ml in H2O+0.1% TFA) are degraded (50% degradation).

[8] = test system: K562: human chronic myelogenous leukemia; assay: Viability assay (WST-1); type: cell-based
Experimental: K562: human chronic myelogenous leukemia (CML) (origin: ATCC #CCL-243).
as §1, §2

[9] = HT29 colon carcinoma, short exposure

IC50 ([1]; 1 h incubation + 48 h): 113 ± 40 µM
IC50 ([1]; 48 h incubation): 8.5 ± 7.9 µM
IC50 ([2]; 1 h incubation + 48 h): > 1000 µM
IC50 ([2]; 48 h incubation): 725 ± 388 µM
Molecule: O=c1[nH]cc(F)c(=O)[nH]1 [5FUra]

Molecule: CC(=O)O[C@H]1C(=O)[C@@]2(C)[C@H]([C@H](OC(=O)c3ccccc3)[C@]3(O)C[C@H](OC(=O)[C@H](OC(=O)CCCCCN4C(=O)CC(SC[C@H](NC(=O)[C@H](CCCNC(=N)N)NC(=O)[C@H](CO)NC(=O)[C@H](CCC(N)=O)NC(=O)[C@H](CCCNC(=N)N)NC(=O)[C@H](CCC(=O)O)NC(=O)[C@H](CCCNC(=N)N)NC(=O)[C@H](CCCNC(=N)N)NC(=O)[C@H](CC(C)C)NC(=O)[C@H](CCCNC(=N)N)NC(=O)[C@H](CO)NC(=O)[C@H](CCC(N)=O)NC(=O)[C@H](CCCNC(=N)N)NC(=O)[C@H](CCC(=O)O)NC(=O)[C@H](CCCNC(=N)N)NC(=O)[C@H](CCCNC(=N)N)NC(=O)[C@@H](N)CC(C)C)C(=O)O)C4=O)[C@@H](NC(=O)c4ccccc4)c4ccccc4)C(C)=C1C3(C)C)[C@]1(OC(C)=O)CO[C@@H]1C[C@@H]2O (some centres unmarked) [DPV15-E-PTX] (H-LRRERQSRLRRERQSRC(X3)-OH)
IC50 [3]: 0.37 ± 0.05 µM
IC50 [4]: 33 ± 5.7 µM
IC50 [5]: 4.3 ± 2.7 µM
solubility ([6]; water): ≥ 10000 µg/mL

Molecule: Poly-L-Lysine
IC50 (concentration at which 50% of the maximum internalization is achieved) (HeLa cells): around 25 μg/ml

Molecule: CC(C)C[C@H](NC(=O)[C@H](CCCNC(=N)N)NC(=O)[C@H](CO)NC(=O)[C@H](CCC(N)=O)NC(=O)[C@H](CCCNC(=N)N)NC(=O)[C@H](CCC(=O)O)NC(=O)[C@H](CCCNC(=N)N)NC(=O)[C@H](CCCNC(=N)N)NC(=O)[C@@H](N)CC(C)C)C(=O)N[C@@H](CCCNC(=N)N)C(=O)N[C@@H](CCCNC(=N)N)C(=O)N[C@@H](CCC(=O)O)C(=O)N[C@@H](CCCNC(=N)N)C(=O)N[C@@H](CCC(N)=O)C(=O)N[C@@H](CO)C(=O)N[C@@H](CCCNC(=N)N)C(=O)N[C@@H](CSC1CC(=O)N(CCCCCC(=O)OCCOC(=O)CCCc2ccc(N(CCCl)CCCl)cc2)C1=O)C(=O)O (some centres unmarked) [DPV15-E-Chl] (H-LRRERQSRLRRERQSRC(X2)-OH)
solubility [6]: ≥ 10000 µg/mL
degradation after overnight incubation [7]: 50%
IC50 ([8]; 1 h incubation + 48 h): 30 µM
IC50 ([8]; 48 h incubation): 30 µM
more efficient than Chl ([8]; long exposure): 8 fold
more efficient than Chl ([8]; short exposure): ≥ 16 fold
more efficient than Chl ([1]; long exposure): 8 fold
more efficient than Chl ([1]; short exposure): 12 fold
IC50 ([1]; 1 h incubation + 48 h): 43 ± 15 µM
IC50 ([1]; 48 h incubation): 25 ± 7 µM
more efficient than 5FUra [2, 9]: ≥ 17 fold
more efficient than Chl [2, 9]: 11 fold
IC50 ([2]; 1 h incubation + 48 h): 60 µM
IC50 ([2]; 48 h incubation): 325 µM
